Measurements reported in US20040228804A1, “Nasal administration of xylitol to a non-human mammal” (priority 2003, published 2004).

Assays:
shipping fever = assay: treating cattle with xylitol in solution to reduce or prevent shipping fever; format: in vivo; conditions: 1% xylitol in solution; lower limit of tested effectiveness
Source text: (§1) Embodiments of the present invention are directed to treating cattle with xylitol in solution in order to reduce or prevent shipping fever, and/or ailments associated with close quartering of cattle. The solution may be a saline based solution for some embodiments, but the solution may also have just a water base. A maximum strength may be a saturated solution comprising approximately of 64 grams of xylitol per 100 cubic centimeters (cc's) of solution. The inventor has yet to determine a precise lower limit of xylitol that would be effective, but as little as 1% xylitol in solution has shown to be effective. It should be understood however, that a 1% xylitol in solution should not be construed as a lower limit of effectiveness; rather, this is only the lower limit of tested effectiveness. Smaller percentages of the xylitol in solution may likewise be effective, and thus their use would be within the scope and spirit of the invention.
The precise mode of application of the xylitol in solution may vary substantially. In at least some embodiments, nostrils of the cattle may be treated directly prior to close quartering, such as shipping. In particular, in these embodiments the xylitol in solution be applied to each nostril of each animal in the form of a mist (nebulized), which application preferably takes place for approximately two respiratory cycles of the animal for each nostril. […]

[1] = saturated solution of xylitol (maximum strength); format: physicochemical; conditions: saline or water based solution
Source text: as §1

pathogenic bacteria = conditions: several pathogenic bacteria exposed to xylitol; cited from earlier work

Q: For `OC[C@@H](O)[C@H](O)[C@@H](O)CO` [xylitol], which “effectiveness of xylitol in solution” value (shipping fever) is on record?
A: Its value is “effective”.

Q: What about the “saturated solution, xylitol per 100 cubic centimeters of solution” value [1] of the same molecule?
A: Its value is ~64 grams per 100 cubic centimeter.

Q: And the “adherence of bacteria to their environment” value (pathogenic bacteria)?
A: Its value is “less adherent”.
